pIC50: −log10 of the molar value. Calls of active or inactive are those of the source. No cut-off for these calls is given here.
Experiments:
[1] = Nephrotoxicity in Balb/c mouse xenografted with human MCF7 cells assessed as effect on creatinine level in serum at 5 to 10 mg/kg, iv measured after 24 hrs; assay type: toxicity, organism-based; conditions: in vivo, dose 5-10 mg/kg
[2] = Toxicity in Balb/c mouse xenografted with human MCF7 cells assessed as effect on red blood cells count at 5 to 10 mg/kg, iv measured after 24 hrs; assay type: organism-based; conditions: in vivo, dose 5-10 mg/kg
[3] = tested on: MCF7; assay: Antiproliferative activity against human MCF7 cells overexpressing EGFR assessed as reduction in cell viability incubated for 48 hrs by MTT assay relative to control; assay type: functional
[4] = Toxicity in Balb/c mouse xenografted with human MCF7 cells assessed as effect on lymphocytes count at 5 to 10 mg/kg, iv measured after 24 hrs; assay type: organism-based; conditions: in vivo, dose 5-10 mg/kg
[5] = tested on: MCF7; assay: Antiproliferative activity against human MCF7 cells assessed as reduction in cell viability incubated for 48 hrs by MTT assay relative to control; assay type: functional
[6] = Toxicity in Balb/c mouse xenografted with human MCF7 cells assessed as effect on platelets count at 5 to 10 mg/kg, iv measured after 24 hrs; assay type: organism-based; conditions: in vivo, dose 5-10 mg/kg
[7] = molecular target: T1, Estrogen receptor (Homo sapiens) (UniProt P03372); assay: HyT degrader activity at ER-alpha in human MCF7 cells assessed as induction of ER-alpha degradation by measuring decrease in ER-alpha level at 10 uM pretreated with 26S proteasome inhibitor, MG-132 for 2 hrs followed by incubation with compound for 12 hrs by immunoblot analysis; assay type: cell-based
T1 sequence (whole entry): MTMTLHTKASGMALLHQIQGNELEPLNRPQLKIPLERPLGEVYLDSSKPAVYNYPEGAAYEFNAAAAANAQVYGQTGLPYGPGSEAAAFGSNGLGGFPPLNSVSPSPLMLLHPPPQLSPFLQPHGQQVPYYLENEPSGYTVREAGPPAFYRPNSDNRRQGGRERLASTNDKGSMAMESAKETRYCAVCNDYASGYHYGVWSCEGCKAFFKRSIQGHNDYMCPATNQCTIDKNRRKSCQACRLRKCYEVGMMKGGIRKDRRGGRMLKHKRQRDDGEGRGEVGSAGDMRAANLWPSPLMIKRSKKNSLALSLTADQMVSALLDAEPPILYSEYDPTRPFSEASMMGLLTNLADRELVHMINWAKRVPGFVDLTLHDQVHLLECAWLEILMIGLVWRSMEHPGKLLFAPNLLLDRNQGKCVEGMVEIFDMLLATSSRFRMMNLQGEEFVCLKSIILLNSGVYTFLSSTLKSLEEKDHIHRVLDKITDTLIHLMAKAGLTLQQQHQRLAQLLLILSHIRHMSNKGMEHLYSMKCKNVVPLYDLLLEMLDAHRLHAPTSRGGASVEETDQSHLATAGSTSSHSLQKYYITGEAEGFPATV

[8] = molecular target: T1, Estrogen receptor (Homo sapiens); assay: HyT degrader activity at ER-alpha in human MCF7 cells assessed as induction of ER-alpha degradation incubated for 24 hrs by western blot analysis; assay type: cell-based; conditions: dose 0.01-100 µM
[9] = molecular target: T1, Estrogen receptor (Homo sapiens); assay: HyT degrader activity at ER-alpha in human MCF7 cells assessed as induction of ER-alpha degradation by measuring decrease in ER-alpha level at 10 uM incubated for 48 hrs followed by drug wash-out and measured after 48 hrs by western blot analysis; assay type: cell-based
[10] = tested on: Mus musculus; assay: In vivo induction of ER-alpha degradation in Balb/c mouse xenografted with human MCF7 cells assessed as decrease in ER-alpha expression in tumor at 5 to 10 mg/kg, iv administered every 3 days and measured on day 21 by immunofluorescence analysis; assay type: functional, organism-based; conditions: dose 5-10 mg/kg, time 21.0 day
[11] = molecular target: Estrogen receptor beta (Homo sapiens) (UniProt Q92731); assay: HyT degrader activity at ER-beta in human MCF7 cells assessed as induction of ER-beta degradation by measuring decrease in ER-beta level at 1 to 10 uM incubated for 24 hrs by immunoblot analysis; assay type: cell-based; conditions: dose 1-10 µM
Sequence of Estrogen receptor beta (Homo sapiens) (Q92731 whole entry): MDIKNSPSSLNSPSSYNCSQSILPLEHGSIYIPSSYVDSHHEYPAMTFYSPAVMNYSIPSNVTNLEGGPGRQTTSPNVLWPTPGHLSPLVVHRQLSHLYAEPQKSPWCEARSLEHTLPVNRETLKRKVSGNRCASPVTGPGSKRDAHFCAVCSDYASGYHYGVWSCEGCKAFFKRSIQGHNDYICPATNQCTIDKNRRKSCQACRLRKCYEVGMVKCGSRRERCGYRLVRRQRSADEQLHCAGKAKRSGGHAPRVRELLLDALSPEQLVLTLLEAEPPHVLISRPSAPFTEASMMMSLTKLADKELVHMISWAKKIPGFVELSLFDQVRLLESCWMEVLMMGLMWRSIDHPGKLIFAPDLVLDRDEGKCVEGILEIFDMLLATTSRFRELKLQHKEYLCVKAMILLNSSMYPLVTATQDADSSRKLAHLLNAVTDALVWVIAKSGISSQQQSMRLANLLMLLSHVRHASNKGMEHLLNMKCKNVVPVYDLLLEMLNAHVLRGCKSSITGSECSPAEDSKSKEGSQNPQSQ

[12] = Toxicity in Balb/c mouse xenografted with human MCF7 cells assessed as effect on white blood cells count at 5 to 10 mg/kg, iv measured after 24 hrs; assay type: organism-based; conditions: in vivo, dose 5-10 mg/kg
[13] = Toxicity in Balb/c mouse xenografted with human MCF7 cells assessed as effect on hematocrit level at 5 to 10 mg/kg, iv measured after 24 hrs; assay type: organism-based; conditions: in vivo, dose 5-10 mg/kg
[14] = tested on: MCF7; assay: Antitumor activity against human MCF7 cells xenografted in Balb/c mouse assessed as tumor volume at 10 mg/kg, iv administered every 3 days and measured for 21 days (reference value: 165.5 mm3); assay type: functional; conditions: time 21 day
[15] = tested on: MCF7; assay: Antiproliferative activity against human MCF7 cells overexpressing ER-alpha Y537S mutant assessed as reduction in cell viability incubated for 48 hrs by MTT assay relative to control; assay type: functional
[16] = molecular target: T1, Estrogen receptor (Homo sapiens); assay: HyT degrader activity at ER-alpha in human MCF7 cells assessed as induction of ER-alpha degradation by measuring decrease in ER-alpha level at 10 uM pretreated with HSP90 inhibitor, 17-AAG for 2 hrs followed by incubation with compound for 12 hrs by immunoblot analysis; assay type: cell-based
[17] = Toxicity in Balb/c mouse xenografted with human MCF7 cells assessed as effect on kidneys morphological changes at 5 to 10 mg/kg, iv measured after 24 hrs by Hematoxylin-Eosin staining based analysis; assay type: organism-based; conditions: in vivo, dose 5-10 mg/kg
[18] = Hepatotoxicity in Balb/c mouse xenografted with human MCF7 cells assessed as effect on AST level in serum at 5 to 10 mg/kg, iv measured after 24 hrs; assay type: toxicity, organism-based; conditions: in vivo, dose 5-10 mg/kg
[19] = molecular target: T1, Estrogen receptor (Homo sapiens); assay: HyT degrader activity at ER-alpha in human MCF7 cells assessed as induction of ER-alpha degradation by measuring decrease in ER-alpha level at 10 uM incubated for 72 hrs by western blot analysis; assay type: cell-based
[20] = molecular target: T1, Estrogen receptor (Homo sapiens); assay: HyT degrader activity at ER-alpha in human MCF7 cells assessed as induction of ER-alpha degradation by measuring residual ER-alpha level at 10 uM pretreated with HSP70 inhibitor, VER-155008 and HSP90 inhibitor, 17-AAG for 2 hrs followed by incubation with compound for 12 hrs by immunoblot analysis; assay type: cell-based
[21] = Toxicity in Balb/c mouse xenografted with human MCF7 cells assessed as effect on hemoglobin content at 5 to 10 mg/kg, iv measured after 24 hrs; assay type: organism-based; conditions: in vivo, dose 5-10 mg/kg
[22] = molecular target: T1, Estrogen receptor (Homo sapiens); assay: HyT degrader activity at ER-alpha in human MCF7 cells assessed as induction of ER-alpha degradation by measuring decrease in ER-alpha level at 10 uM incubated for 48 hrs by western blot analysis; assay type: cell-based; parameters: scale not given: the % may be the effect or the level left
[23] = molecular target: Estrogen receptor beta (Homo sapiens) (UniProt Q92731); assay: Binding affinity to ER-beta in human MCF7 cells at 100 uM incubated for 1 hr followed by exposure to heat at 25 to 66 degC for 3 mins and incubation for 3 mins at room temperature by thermal shift binding assay; assay type: cell-based; conditions: time 66.0 min
[24] = molecular target: T1, Estrogen receptor (Homo sapiens); assay: HyT degrader activity at ER-alpha in human T47D cells assessed as induction of ER-alpha degradation by measuring downregulation of ER-alpha level at 1 to 5 uM incubated for 24 hrs by immunoblot analysis; assay type: cell-based; conditions: dose 1-5 µM
[25] = tested on: MCF7; assay: Antiproliferative activity against human MCF7 cells overexpressing EGFR assessed as reduction in cell viability incubated for 48 hrs by MTT assay; assay type: functional, cell-based; conditions: MCF7, 48 h
[26] = tested on: MCF7; assay: Antiproliferative activity against human MCF7 cells overexpressing ER-alpha Y537S mutant assessed as reduction in cell viability incubated for 48 hrs by MTT assay; assay type: functional, cell-based; conditions: MCF7, 48 h

With `C[C@@H]1CCC2[C@]34OO[C@](C)(CCC13)O[C@@H]4O[C@]2(C)C(=O)NCCCOc1ccc(C(=O)c2c(-c3ccc(O)cc3)sc3cc(O)ccc23)cc1` (stereo partly specified) the Activity [1] was “Non-toxic”, the Activity [2] was “Non-toxic” and the “inhibition (INH)” value [3] was 56.7%. The Activity [4] was “Non-toxic”, the “inhibition (INH)” value [5] was 73.5% and the Activity [6] was “Non-toxic”. The Activity [7] was “inactive”, the Activity [8] was “Dose-dependent-effect” and the Activity [9] was “Active”. The Activity [10] was “Active”, the Activity [11] was “Active” and the Activity [12] was “Non-toxic”. For the same compound, the Activity [13] was “Non-toxic”, the Activity [14] was 65.1 mm3 and the “inhibition (INH)” value [15] was 63.6%. The Activity [16] was “inactive”, the Activity [17] was “Non-toxic” and the Activity [18] was “Non-toxic”. For the same compound, the Activity [19] was “Active”, the Activity [20] was 91% and the Activity [21] was “Non-toxic”. For the same compound, the Activity [22] was > 99%, the Activity [23] was “Active; Weak Affinity” and the Activity [24] was “Active”. It also gave a pIC50 [25] of 5.33 and a pIC50 [26] of 4.96.
